Assay results published in patent publication US20260285801A1, “LIPID NANOPARTICLE FOR TARGETED DELIVERY OF THERAPEUTIC PAYLOADS” (Trustees of Tufts College, priority 2023, published 2026).

How the values were obtained:
[1] = LNP size and polydispersity index by dynamic light scattering (Zetasizer Nano ZS); type: physicochemical; settings: LNP with mRNA payload formulated with the lipid; active lipid/Cholesterol/DOPC/DMG-PEG 16.8/4.0/2.0/1.0; Lipids:mRNA 25:1; PBS pH 7.4, 25° C.
Procedure: (§1) RNA working solutions (0.134 mg/ml) were prepared in 25 mM sodium acetate buffer using DNase/RNase-free distilled water. Lipid stock solutions (10 mg/mL) were freshly prepared with active lipids or helper lipids (e.g., cholesterol, DOPC or DSPC, or ALC-0159) in ethanol. Reagents were mixed by vortexing and sonicating until the lipids were completely dissolved. A lipid mixture was first prepared by combining the active lipids (e.g., ionizable lipids of the present disclosure) and helper lipids into one vial and mixing thoroughly. Lipid nanoparticles were then formed by mixing the RNA working solution (0.134 mg/ml) and the lipid mixture at 3:1 volume ratio, either manually (for smaller scale) or by Precision Igniter microfluidic device. The formulation solution was transferred into a 300 kDa MWCO Float-A-Lyzer G2 Dialysis Device and dialyzed against at least 1000-folds volume of 50 mM Tris buffer overnight at 4° C. The LNP solution was sterilized with a 0.22 μm filter.
(§2) For LNP characterization, size and polydispersity index (PDI) were determined by dynamic light scattering using a Zetasizer Nano ZS. 10 μL of LNP suspension was transferred to a low-volume cuvette containing 900 μL of Ca^2+ and Mg^2+ free PBS at pH 7.4. Refractive index was set to […] and temperature was set to 25° C. Encapsulation efficiency (EE %) was measured using a fluorescence plate-based assay employing the Ribogreen reagent (Invitrogen) as per PNI Ribogreen assay protocol 16. This assay measures the quantity of mRNA in samples with intact LNPs to determine the quantity of unencapsulated RNA as well as in LNP samples disrupted by triton X-100 to measure the total RNA. EE % is calculated as the difference between the total RNA and the unencapsulated RNA divided by the total RNA.

[2] = Encapsulation efficiency and mRNA quantity by Ribogreen fluorescence plate assay; type: physicochemical; settings: LNP with mRNA payload formulated with the lipid, 16.8/4.0/2.0/1.0, Lipids:mRNA 25:1; for EE %: (total RNA - unencapsulated RNA)/total RNA
Procedure: as §1, §2

| SMILES | PDI [1] | Size (nm) [1] | [mRNA] Ug/ml [2] | EE % [2] |
| --- | --- | --- | --- | --- |
| CCCCCCC(CCCC)CNC(=O)SCCOC(=O)CCN(CCCN(C)CCCN(CCC(=O)OCCSC(=O)NCC(CCCC)CCCCCC)CCC(=O)OCCSC(=O)NCC(CCCC)CCCCCC)CCC(=O)OCCSC(=O)NCC(CCCC)CCCCCC (stereo not shown) [Lipid L0550] | 0.14 | 121 nm | 61.1 Ug/ml | 84.3% |
| CCCCCCCC(CCCCCC)OC(=O)OCCOC(=O)CCN(CCCN(C)CCCN(CCC(=O)OCCOC(=O)OC(CCCCCC)CCCCCCC)CCC(=O)OCCOC(=O)OC(CCCCCC)CCCCCCC)CCC(=O)OCCOC(=O)OC(CCCCCC)CCCCCCC (stereo not shown) [Lipid L0654] | 0.1 | 119.4 nm | 65.6 Ug/ml | 90.6% |
| CCCCC/C=C\CCCOC(=O)CCN(CCCN(C)CCCN(CCC(=O)OCCC/C=C\CCCCC)CCC(=O)OCCC/C=C\CCCCC)CCC(=O)OCCC/C=C\CCCCC [Lipid L0824] | 0.12 | 95.98 nm | 93.4 Ug/ml | 68% |
| CCCCCCC(CCCC)COC(=O)OCCOC(=O)CCN(CCCN(CCCNC(=S)NC)CCCN(CCC(=O)OCCOC(=O)OCC(CCCC)CCCCCC)CCC(=O)OCCOC(=O)OCC(CCCC)CCCCCC)CCC(=O)OCCOC(=O)OCC(CCCC)CCCCCC (stereo not shown) [Lipid L0773] | 0.089 | 135.3 nm | 95.3 Ug/ml | 98.7% |
| CC/C=C\CCCC[Se]CCOC(=O)CCN(CCCN(C)CCCN(CCC(=O)OCC[Se]CCCC/C=C\CC)CCC(=O)OCC[Se]CCCC/C=C\CC)CCC(=O)OCC[Se]CCCC/C=C\CC [Lipid L0825] | 0.099 | 118.7 nm | 91.2 Ug/ml | 62% |
| CCCCCCC(CCCC)COC(=O)OCCOC(=O)CCN(CCCN(CCO)CCCN(CCC(=O)OCCOC(=O)OCC(CCCC)CCCCCC)CCC(=O)OCCOC(=O)OCC(CCCC)CCCCCC)CCC(=O)OCCOC(=O)OCC(CCCC)CCCCCC (stereo not shown) [Lipid L0665] | 0.16 | 107.6 nm | 65.8 Ug/ml | 97.2% |
| CCCCCCCCCC(CC)OC(=O)OCCOC(=O)CCN(CCCN(C)CCCN(CCC(=O)OCCOC(=O)OC(CC)CCCCCCCCC)CCC(=O)OCCOC(=O)OC(CC)CCCCCCCCC)CCC(=O)OCCOC(=O)OC(CC)CCCCCCCCC (stereo not shown) [Lipid L0659] | 0.1 | 104.3 nm | 69.6 Ug/ml | 96.2% |
| CCC1CC1CCCCSSCCOC(=O)CCN(CCCN(C)CCCN(CCC(=O)OCCSSCCCCC1CC1CC)CCC(=O)OCCSSCCCCC1CC1CC)CCC(=O)OCCSSCCCCC1CC1CC (stereo not shown) [Lipid L0586] | 0.079 | 151.8 nm | 78 Ug/ml | 21.2% |
| CC(C)CCCCCCSSCCOC(=O)CCN(CCCn1ccnc1)CCC(=O)OCCSSCCCCCCC(C)C [Lipid L0645] | 0.106 | 161 nm | 90 Ug/ml | 74.2% |
| CCCCCCC(CCCC)COC(=O)OCCOC(=O)CCN(CCCN(CCCNC(=O)OC(C)(C)C)CCCN(CCC(=O)OCCOC(=O)OCC(CCCC)CCCCCC)CCC(=O)OCCOC(=O)OCC(CCCC)CCCCCC)CCC(=O)OCCOC(=O)OCC(CCCC)CCCCCC (stereo not shown) [Lipid L0668] | 0.11 | 134.7 nm | 67.1 Ug/ml | 97% |
| CCCCCCC(CCCC)COC(=O)OCCOC(=O)CCN(CCCN(CCCCO)CCCN(CCC(=O)OCCOC(=O)OCC(CCCC)CCCCCC)CCC(=O)OCCOC(=O)OCC(CCCC)CCCCCC)CCC(=O)OCCOC(=O)OCC(CCCC)CCCCCC (stereo not shown) [Lipid L0667] | 0.19 | 101.7 nm | 77.3 Ug/ml | 97% |
| CCCCCCC(CCCC)COC(=O)NCCNC(=O)CCN(CCCN(C)CCCN(CCC(=O)OCCNC(=O)OCC(CCCC)CCCCCC)CCC(=O)OCCNC(=O)OCC(CCCC)CCCCCC)CCC(=O)NCCNC(=O)OCC(CCCC)CCCCCC (stereo not shown) [Lipid L0744] | 0.118 | 97 nm | 74 Ug/ml | 95.5% |
| CC(C)CCCCCCSSCCOC(=O)CCN(CCCN(C)CCCN(CCC(=O)OCCSSCCCCCCC(C)C)CCC(=O)OCCSSCCCCCCC(C)C)CCC(=O)OCCSSCCCCCCC(C)C [Lipid L0642] | 0.124 | 186.4 nm | 99.9 Ug/ml | 84.5% |
